Source: article PMC8776094, “Reactive Oxygen Species Production Is Responsible for Antineoplastic Activity of Osmium, Ruthenium, Iridium and Rhodium Half-Sandwich Type Complexes with Bidentate Glycosyl Heterocyclic Ligands in Various Cancer Cell Models” (International Journal of Molecular Sciences, 2022)
Entries after “also recorded” stand apart in the source; their conditions may differ.

Columns and labels:
Type in all cases: cell-based
[1] = tested on: ID8 ovarian cancer cell line; assay: SRB assay, 48 h, cytostasis, ID8; conditions: for IC50 / ID8 Max. Inh. (%): SRB assay, 48 h; for ID8 Max. Inh. (%): ND = not detected
Protocol: (§1) The compounds were tested between 0.001694 and 33.3333 µM, using a 4-hour-long MTT test to assess rapid toxicity and a 48-hour-long SRB assay to assess the long-term effects of the inhibition of proliferation (cytostasis). The MTT assay assesses the activity of mitochondrial complex I and detects rapid, direct toxicity, as well as indicating apoptosis and necrosis. The SRB assay measures the total protein content that is proportional to cell numbers; therefore, the assay can detect changes in cell numbers and can thus be used as a readout for cell proliferation. The SRB assay was performed after 48 h of treatment (with the exception of L428 cells, which were tested for 96 h due to their slower proliferation rate). In this setting, the SRB assay informs us of long-term changes to cell proliferation. We assessed the maximal inhibition within that concentration range, and descriptive statistics were performed. We performed a one-way ANOVA, followed by the Kruskal–Wallis test, regardless of the normal or non-normal distribution of the data. Due to the large number of significance values, the results of the significance calculations are provided in an Excel spreadsheet at https://figshare.com/s/28d14597d5041f08eb08 (accessed on 6 January 2022), among other primary data of the study. Where possible, nonlinear regression was performed on the curves to determine the IC50 values ((inhibitor) vs. response—variable slope (four parameters) method with Graphpad v8.0.1). […] In Table 5, we added the IC50 values that we determined for a set of 4 active ruthenium half-sandwich complexes we identified previously, to be used in subsequent structure-activity relationship (SAR) analyses.
ID8 cells were cultured in a high-glucose DMEM (4.5 g/L glucose) medium, supplemented with 4% fetal calf serum, 2 mM glutamine, 1% penicillin-streptomycin, and 1% ITS supplement (I3146).
(§2) The assay was performed similarly to the method used in [73]. Cells were seeded in 96-well plates the day before the assay. Cells were treated with the compounds for 48 h, with the exception of L428, where 96 h of treatment was applied. Cells were fixed with 10% trichloroacetic acid (TCA). Fixed cells were washed in distilled water 3 times, followed by staining with SRB (0.4 m/V% dissolved in 1% acetic acid) for 10 min. The stained cells were washed in 1% acetic acid 5 times; the acetic acid was removed, and the cells were left to dry. Protein-bound SRB was released by adding 100 µL 10 mM Tris base. Plates were measured in a plate photometer (Thermo Scientific Multiscan GO spectrophotometer, Waltham, MA, USA) at 540 nm. On each plate, wells were designed to contain untreated cells. In calculations, the readings for these wells were considered as 1 and all readings were expressed relative to these values.
(§3) Statistical analysis was performed using the 8.0.1 version of Graphpad Prism. Values were tested for normal distribution, using the d’Agostino and Pearson normality test. When necessary, values were log-normalized or were normalized using the Box-Cox normalization method or using a two-step transformation, as indicated in the figure captions. Nonlinear regression was performed using the built-in “[Inhibitor] vs. Response—Variable slope (four parameters), least-square fit” utility of Graphpad, yielding the IC50 and Hill slope values.

[2] = tested on: A2780 ovarian cancer cells; assay: MTT reduction assay, 4 h, rapid toxicity, A2780; conditions: 4 h treatment; for Maximum Inhibition (%) A2780: MTT assay, tested 0.001694-33.3333 µM, ND = not detected or cannot be calculated
Protocol: as §1
(§4) A2780 cells were cultured in RMPI 1640 medium, supplemented with 10% fetal calf serum, 2 mM glutamine, and 1% penicillin-streptomycin.
The MTT reduction assay measures the activity of mitochondrial complex I and can be used to detect apoptosis and necrosis. The assay was performed similarly to the method used in [72]. Briefly, cells were plated in 96-well plates the day before the assay. Cells were treated with the compounds for 4 h, then MTT was added at 0.5 mg/mL final concentration and the cells were incubated at 37 °C in a cell incubator. The culture media were removed and the reduced MTT dye was dissolved in dimethyl-sulfoxide (DMSO) and plates were measured in a plate photometer (Thermo Scientific Multiscan GO spectrophotometer, Waltham, MA, USA) at 540 nm. On each plate, wells were designed to contain untreated/vehicle-treated cells. In the calculations, the readings for these wells were considered as 1 and all readings were expressed relative to these values.

[3] = tested on: A2780 ovarian cancer cells; assay: SRB assay, 48 h, cytostasis, A2780; conditions: for cytostatic activity on A2780 cells in SRB assay (in words): 48 h treatment; for IC50 / A2780 Max. Inh. (%): SRB assay, 48 h; for A2780 Max. Inh. (%): ND = not detected
Protocol: as §1, §4, §2, §3

[4] = tested on: Capan2, a pancreatic adenocarcinoma cell line; assay: SRB assay, 48 h, cytostasis, Capan2; conditions: for IC50 / Capan2 Max. Inh. (%): SRB assay; for Capan2 Max. Inh. (%): ND = not detected
From the text: (§5) We turned next to assessing whether the cytostatic activity of Os-3, Os-4, Os-5, Os-6 and Ir-6 complexes is specific for ovarian cancer cell lines or if they may be active on other cell lines. To that end, we tested the complexes on another carcinoma cell line (Capan2, a pancreatic adenocarcinoma cell line), on a sarcoma cell line (Saos, an osteosarcoma cell line) and on a lymphoma cell line (L428, a Hodgkin’s lymphoma cell line).
Capan2 cells were maintained in MEM, 10% fetal bovine serum, 1% penicillin/streptomycin, and 2 mM glutamine.
as §2, §3
(§6) Here, 1.5 × 10^3 Capan2, 3 × 10^3 Saos cells and 10^4 L428 cells were plated onto 96-well plates. Capan2 and Saos cells were treated with the compounds in the concentrations indicated for 48 h for an SRB assay. L428 cells were treated with the compounds in the concentrations indicated for 96 h, then cells were counted using conventional microscopy and a Burker chamber. Data are represented as average ± SD, from three biological replicates; individual assays were performed in duplicate. Values were normalized for vehicle-treated cells; the absorbance for vehicle-treated cells is equal to 1. A one-way ANOVA, followed by a Kruskal–Wallis test, was performed individually for each compound. The results of the statistical analysis are presented in an Excel spreadsheet at https://figshare.com/s/28d14597d5041f08eb08 (accessed on 6 January 2022). Nonlinear regression was performed on the data.

[5] = tested on: Saos, an osteosarcoma cell line; assay: SRB assay, 48 h, cytostasis, Saos; conditions: for IC50 / Saos Max. Inh. (%): SRB assay; for Saos Max. Inh. (%): ND = not detected
From the text: as §5
Saos cells were maintained in DMEM (4.5 g/L glucose) medium, supplemented with 10% fetal calf serum, 2 mM glutamine, and 1% penicillin-streptomycin.
as §2, §3, §6

| SMILES | cytostatic activity on ID8 cells, SRB assay (in words) ([1]; 48 h treatment) | IC50 [1] [µM] | ID8 Max. Inh. (%) [1] [%] | toxicity on A2780 cells in short-term MTT assay (in words) [2] | Maximum Inhibition (%) A2780 [2] [%] | cytostatic activity on A2780 cells in SRB assay (in words) [3] | IC50 [3] [µM] | A2780 Max. Inh. (%) [3] [%] | cytostatic activity on Capan2 cells (in words) [4] | IC50 [4] [µM] | Capan2 Max. Inh. (%) [4] [%] | cytostatic activity on Saos cells (in words) [5] | IC50 [5] [µM] | Saos Max. Inh. (%) [5] [%] |
| --- | --- | --- | --- | --- | --- | --- | --- | --- | --- | --- | --- | --- | --- | --- |
| Cc1c(C)c(C)[c-](C)c1C.F[P-](F)(F)(F)(F)F.O=C(OCC1OC(n2cc(-c3ccccn3)nn2)C(OC(=O)c2ccccc2)C(OC(=O)c2ccccc2)C1OC(=O)c1ccccc1)c1ccccc1.[Cl][Ir+2] (mixture of isomers) [Ir-6] | pronounced cytostatic activity | 0.98 | 100 | exerted toxicity in higher concentrations | 43.07 | pronounced; also recorded: displayed cytostatic activity | 1.64 | 100 | active on all cell lines | 4.15 | 100 | active on all cell lines | 2.71 | 100 |
| Cc1ccc(C(C)C)cc1.F[P-](F)(F)(F)(F)F.O=C(OCC1OC(c2nnc(-c3ccccn3)o2)C(OC(=O)c2ccccc2)C(OC(=O)c2ccccc2)C1OC(=O)c1ccccc1)c1ccccc1.[Cl][Os+] (mixture of isomers) [Os-3] |  | 5.94 | 100 |  | 37.42 | exerted cytostatic activity | 2.52 | 100 | active on all cell lines | 8.8 | 100 | active on all cell lines |  | 65 |
| Cc1ccc(C(C)C)cc1.F[P-](F)(F)(F)(F)F.O=C(OCC1OC(c2nnc(-c3ccccn3)o2)C(OC(=O)c2ccccc2)C(OC(=O)c2ccccc2)C1OC(=O)c1ccccc1)c1ccccc1.[Cl][Os+] (mixture of isomers) [Os-4] |  | 6.95 | 100 |  | 26.67 | exerted cytostatic activity | 3.23 | 100 | active on all cell lines | 6.2 | 100 | active on all cell lines | 8.78 | 100 |
| Cc1ccc(C(C)C)cc1.F[P-](F)(F)(F)(F)F.O=C(OC1COC(c2nnc(-c3ccccn3)o2)C(OC(=O)c2ccccc2)C1OC(=O)c1ccccc1)c1ccccc1.[Cl][Os+] (mixture of isomers) [Os-5] |  | 1.96 | 100 |  | 31.38 | exerted cytostatic activity | 2.81 | 100 | active on all cell lines | 8.89 | 100 | active on all cell lines | 8.52 | 100 |
| Cc1ccc(C(C)C)cc1.F[P-](F)(F)(F)(F)F.O=C(OCC1OC(n2cc(-c3ccccn3)nn2)C(OC(=O)c2ccccc2)C(OC(=O)c2ccccc2)C1OC(=O)c1ccccc1)c1ccccc1.[Cl][Os+] (mixture of isomers) [Os-6] |  | 1.96 | 100 |  | 21.38 | exerted cytostatic activity | 0.7 | 100 | active on all cell lines | 1.71 | 100 | active on all cell lines | 3.6 | 100 |
